# Literature values, collected in patent US20200268817A1, “CANNABINOID COMPOSITIONS, METHODS OF MANUFACTURE AND USE THEREOF” (priority 2016, published 2020).
# Like-named read-outs stand apart in the source and are kept apart here.
# Experiments:
# patients [1] = settings: Phase III study (31)
# [2] = test system: advanced cancer patients with substantial appetite loss; settings: 469 advanced cancer patients; p=0.0001
# patients [3] = settings: low cannabinoid dosages; vs placebo
# prostaglandin E2 = settings: more potent than aspirin
# CB2 = CB2 (Homo sapiens, UniProt P34972)
# Sequence of CB2 (P34972 whole entry, species assumed): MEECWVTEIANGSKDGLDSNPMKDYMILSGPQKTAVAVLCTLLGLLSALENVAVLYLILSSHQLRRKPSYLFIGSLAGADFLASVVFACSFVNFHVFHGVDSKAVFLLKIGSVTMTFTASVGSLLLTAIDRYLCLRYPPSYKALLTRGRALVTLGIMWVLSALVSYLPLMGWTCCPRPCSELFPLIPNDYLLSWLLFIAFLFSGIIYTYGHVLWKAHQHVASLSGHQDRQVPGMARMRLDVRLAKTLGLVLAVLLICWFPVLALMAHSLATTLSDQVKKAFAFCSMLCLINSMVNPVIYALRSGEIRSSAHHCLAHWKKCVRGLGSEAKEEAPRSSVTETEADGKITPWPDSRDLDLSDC
# [4] = test system: patients with acute paranoid schizophrenia; settings: for psychotic symptoms (Brief Psychiatric Rating Scale, Positive and Negative Syndrome Scale): after 2 and 4 weeks, 42 patients
# [5] = test system: synovial cells isolated from mice
# schizophrenic patients = settings: over six weeks
# advanced cancer patients = settings: patients receiving chemotherapy; compared to placebo
# [6] = test system: peripheral blood mononuclear cells; settings: added to peripheral blood mononuclear cells in vitro
smiles,measurement,setting,value
CC(=O)O[C@]1(C(C)=O)CC[C@H]2[C@@H]3C=C(C)C4=CC(=O)CC[C@]4(C)[C@H]3CC[C@@]21C [megestrol acetate],true response (weight gain of >=10% from baseline weight),patients [1],11%
same,patients reporting appetite improvement,[2],75%
"CCCCCc1cc(O)c2c(c1)OC(C)(C)[C@@H]1CCC(C)=C[C@@H]21 [THC, Tetrahydrocannabinol]",start of psychotropic effects,inhaled,within seconds to a few minutes
same,time to maximum psychotropic effects,inhaled,15 to 30 min
same,time until psychotropic effects taper off,inhaled,2 to 3 h
same,delay until psychotropic effects set in,oral ingestion,30 to 90 min
same,time to maximum psychotropic effects,oral ingestion,120 to 180 min
same,duration of psychotropic effects,"oral ingestion, depending on dose and specific effect",4 to 12 h
same,differences between the groups in improvement in appetite or weight-gain,patients [3],No significant differences
COc1cc(-c2cc(=O)c3c(O)c(C/C=C(\C)CCC=C(C)C)c(O)cc3o2)ccc1O [Cannaflavin A],potency as inhibitor of prostaglandin E2 relative to aspirin,prostaglandin E2,30 ×
"C=C1CC/C=C(\C)CC[C@@H]2[C@@H]1CC2(C)C [Beta caryophyllene, Beta-caryophyllene]",TNF alpha and IL-lb expression,human peripheral blood,inhibits
same,binding to CB2,CB2,binds
CCN1CCCC1CNC(=O)c1cc(S(=O)(=O)CC)c(N)cc1OC (centres unmarked) [amisulpride],"psychotic symptoms (Brief Psychiatric Rating Scale, Positive and Negative Syndrome Scale)",[4],significant decrease of psychotic symptoms
"C=C(C)[C@@H]1CCC(C)=C[C@H]1c1c(O)cc(CCCCC)cc1O [CBD, Cannabidiol]",release of TNF-alpha,[5],suppressed
same,positive and cognitive symptoms,"schizophrenic patients; add-on to anti-psychotic, 88 patients",improved positive and cognitive symptoms
same,adverse effects,schizophrenic patients,no severe adverse effects
same,affinity for CB2 receptor,CB2,very low affinity
same,"side effects (extrapyramidal symptoms, increase in prolactin, weight gain) compared to amisulpride",[4]; 4 week trial,significantly fewer side effects
same,"psychotic symptoms (Brief Psychiatric Rating Scale, Positive and Negative Syndrome Scale)",[4],significant decrease of psychotic symptoms
CCCCCc1cc(O)c2c(c1)OC(C)(C)[C@@H]1CCC(C)=C[C@@H]21 [dronabinol],true response (weight gain of >=10% from baseline weight),patients [1],3%
same,"taste and smell perception, appetite and caloric intake",advanced cancer patients,improvement
same,patients reporting appetite improvement,[2],49%
same,patients with decreased nausea,"cancer patients; cancer patients, placebo 7%",20%
same,patients with increased appetite,"cancer patients; cancer patients, placebo 8%",38%
same,patients who gained >=2 kg,"cancer patients; placebo 10.5%, did not reach significance",22%
O=c1cc(-c2ccc(O)c(O)c2)oc2cc(O)cc(O)c12 [Luteolin],"production of TNFa, IL-lb, and IL-6",[6],suppress
